Active and inactive are the calls of the source. The rule behind the calls is not given here.
How the values were obtained:
Electrophorus electricus = assay: (§1) Inhibition of electric eel acetylcholinesterase type VI-S after 30 mins by modified Ellman's assay
[1] = as §1; set-up: species or system Electrophorus electricus

SMILES	Activity (Electrophorus electricus)	IC50 [1] [µM]
CCO[C@]12C[C@H](OC)[C@@]3(O)C[C@H]([C@@H]1[C@H]3OC(=O)c1ccc(OC)c(OC)c1)[C@@]13C4[C@@H]2[C@H](OC)[C@@H]1[C@](COC)(CN4CC)[C@H](O)C[C@@H]3OC	inactive	
COC[C@]12CN(C=O)C3[C@@H]4[C@H](OC)[C@H]1[C@@]3([C@@H](OC)C[C@H]2O)[C@@H]1C[C@]2(O)[C@@H](OC)C[C@@]4(OC(C)=O)[C@H]1[C@H]2OC(=O)c1ccc(OC)c(OC)c1 [FALEOCONITINE]		293
CCN1C[C@]2(COC)[C@H](O)C[C@H](OC)[C@]34C1[C@H]([C@H](OC)[C@H]23)[C@@]1(OC(C)=O)C[C@H](OC)[C@@]2(O)C[C@@H]4[C@@H]1[C@H]2OC(=O)c1ccc(OC)c(OC)c1 [PSEUDACONITINE]		278
